Data reported in patent publication US20040171553A1, “Peptides fragments of colostrinin and their use” (priority 2000, published 2004).
“And” between values parts separate entries of the source, which are not always exact repeats. Equal entries are not always repeated.

How the values were obtained:
[1] = test system: rabbits; test: Serum antibody titre by ELISA after immunisation of rabbits with the KHL-conjugated synthetic peptide; format: in vivo, rabbit; details: ELISA against corresponding synthetic peptide antigen; for Titre: (Serum Dilution) Post Immunization R1: rabbit R1, after the 10 week immunisation protocol; for Titre: (Serum Dilution) Pre Immunization R1: rabbit R1, before immunisation
Description: To each N-terminal end of the synthetic peptides, L-cysteine was attached, and the peptide was formed into a ring so that the cysteine group lay between the N-terminal and the C-terminal ends of the synthetic peptide. This facilitated peptide conjugation with Keyhole Hemolymph (KHL).
For immunisation, two young adult rabbits (5-6 months old, weighing 5-6 lbs [2.3-2.7 kg]) were used. Each antigen (i.e., each synthetic peptide) was given subcutaneously and intramuscularly in 0.1 ml injections at ten different sites. The protocol used followed the following sequence:
The level of antibodies in the serum was established by ELISA (enzyme-linked immunosorbent assay) with the corresponding synthetic peptide antigen. This technique involved the following steps:
1. The antigen was diluted with a 0.1 M bicarbonate buffer (pH 9.0) to yield a 10 μg of antigen/ml solution. A volume of 50 μl of this solution was placed into each microwell of a 96 well plate.
2. The plates were covered and incubated at 37° C. for 3 hours.
3. The wells were washed with a coupling buffer and blocked using 200 μl of Pierce standard solution of BSA (bovine serum albumin).
4. 50 μl of dilutent BSA (0.75% soln.) was pipetted into each well. 50 μl of antibody serum sample diluted 1:100 in dilutent BSA were placed in lane A of each row.
5. 1:2 serial dilutions were performed moving down the plate.
6. The plates were covered and incubated at room temperature for 60 minutes.
7. The plates were washed four times with PBS wash solution.
8. A volume of 50 μl of goat anti-rabbit IgG (H&L) HRP conjugate at 1:1000 dilution in BSA was pipetted into each well and incubated at room temperature for 60 minutes (H&L=heavy and light chain; HRP=horseradish peroxidase).
9. The plates were washed four times with PBS wash solution.
10. A volume of 50 μl of substrate solution 2,2′-azino-bis(3-ethylbenzothiazoline-6-sulfonic acid)-diammonium salt (ABTS available from Pierce, which is used to help visualise the extent of the antibody/antigen reaction) was pipetted into each well and incubated at room temperature for about 2 minutes.
11. The reaction was stopped by adding 50 μl of 1% SDS (sodium dodecyl sulfate) into each well.
12. The wells were then read on a dynoplate reader at 405.
The data presented in Table 3 show the serum antibody titers against specific antibodies after the 10 week immunisation protocol.

[2] = test system: beta-amyloid precursor protein; test: Ischemia-induced beta-amyloid precursor protein accumulation in rats, immunostaining with monoclonal antibodies; format: in vivo; set-up: Jonas C-terminal APP / Beringer- terminal APP / 511-608 APP ALZ 90 / Total: scale not given here; details: ischemic rats; for β-amyloid plaque level, overall result in words: summary of Table 4; for Jonas C-terminal APP: C-terminal end of precursor protein; for Total: sum of the three APP immunostaining levels
Text: Ischemia was induced in rats in order to encourage the development of the beta-amyloid precursor proteins. The rats were then subjected to a variety of treatment regimes, and the degree of the beta-amyloid precursor protein presence was investigated. The general technique is described in “Complete cerebral ischemia with short-term survival in rats induced by cardiac arrest. I. Extracellular accumulation of Alzheimer's β-amyloid protein precursor in the brain.”, Pluta, R. et al, Brain Research 649 (1994) 323-328.
The treatment regime varied in terms of the length of time ischemia was induced, and the length of time treatment was applied.
The Colostrinin was obtained by conventional techniques, as described, for example, in WO98/14473. The peptides were produced using the method described in Example 1. The control was not subjected to any treatment.
Each column represents the results if the immunostaining with specific monoclonal antibodies directed against fragments of amyloid or its N and C precursor protein.

[3] = β-amyloid plaque level, immunostaining

ESYVPLFP [Peptide 5]
Titre: (Serum Dilution) Post Immunization R1 [1]: 25600
Titre: (Serum Dilution) Pre Immunization R1 [1]: 0
β-amyloid plaque level, overall result in words [2]: particularly good results
Beringer- terminal APP ([2]; β-amyloid plaque level, N-terminal end of precursor protein, immunostaining): 2 and 4

FLPVVN [Peptide 2]
Titre: (Serum Dilution) Post Immunization R1 [1]: 12800
Titre: (Serum Dilution) Pre Immunization R1 [1]: 0

LLYQEPV [Peptide 6]
Titre: (Serum Dilution) Post Immunization R1 [1]: 25600
Titre: (Serum Dilution) Pre Immunization R1 [1]: 0

LPLPLVRS [Peptide 10]
Titre: (Serum Dilution) Post Immunization R1 [1]: 25600
Titre: (Serum Dilution) Pre Immunization R1 [1]: 0

PKLKVEVPEP [Peptide 4]
Titre: (Serum Dilution) Post Immunization R1 [1]: 25600
Titre: (Serum Dilution) Pre Immunization R1 [1]: 0

PLPPTVMFPPQ [Peptide 8]
Titre: (Serum Dilution) Post Immunization R1 [1]: 25600
Titre: (Serum Dilution) Pre Immunization R1 [1]: 0

PVLPVEPFPF [Peptide 3]
Titre: (Serum Dilution) Post Immunization R1 [1]: 12800
Titre: (Serum Dilution) Pre Immunization R1 [1]: 0
β-amyloid plaque level, overall result in words [2]: particularly good results
Jonas C-terminal APP [2, 3]: 1 and 2

PVVVPPFLQ [Peptide 9]
Titre: (Serum Dilution) Post Immunization R1 [1]: 25600
Titre: (Serum Dilution) Pre Immunization R1 [1]: 0
Total [2]: 8 and 5 and 6
Jonas C-terminal APP [2, 3]: 3 and 2

QPKVLPVPQ [Peptide 7]
Titre: (Serum Dilution) Post Immunization R1 [1]: 25600
Titre: (Serum Dilution) Pre Immunization R1 [1]: 0
Total [2]: 11 and 10 and 9
511-608 APP ALZ 90 ([2]; β-amyloid plaque level, 511-608 position of precursor protein, immunostaining): 4 and 5
Jonas C-terminal APP [2, 3]: 3

QPLLQVMMEPQ [Peptide 1]
Titre: (Serum Dilution) Post Immunization R1 [1]: 12800
Titre: (Serum Dilution) Pre Immunization R1 [1]: 0
β-amyloid plaque level, overall result in words [2]: particularly good results
Jonas C-terminal APP [2, 3]: 1 and 2
